Activity calls are given as the source filed them. The calls are words filed in the database; no cut-off is given here.
What was measured:
DNA topoisomerase 1 [1] = biological target: T1, DNA topoisomerase 1 (Homo sapiens, UniProt P11387); test: Inhibition of human DNA topoisomerase 1 at free enzyme state
T1 sequence (P11387 whole entry): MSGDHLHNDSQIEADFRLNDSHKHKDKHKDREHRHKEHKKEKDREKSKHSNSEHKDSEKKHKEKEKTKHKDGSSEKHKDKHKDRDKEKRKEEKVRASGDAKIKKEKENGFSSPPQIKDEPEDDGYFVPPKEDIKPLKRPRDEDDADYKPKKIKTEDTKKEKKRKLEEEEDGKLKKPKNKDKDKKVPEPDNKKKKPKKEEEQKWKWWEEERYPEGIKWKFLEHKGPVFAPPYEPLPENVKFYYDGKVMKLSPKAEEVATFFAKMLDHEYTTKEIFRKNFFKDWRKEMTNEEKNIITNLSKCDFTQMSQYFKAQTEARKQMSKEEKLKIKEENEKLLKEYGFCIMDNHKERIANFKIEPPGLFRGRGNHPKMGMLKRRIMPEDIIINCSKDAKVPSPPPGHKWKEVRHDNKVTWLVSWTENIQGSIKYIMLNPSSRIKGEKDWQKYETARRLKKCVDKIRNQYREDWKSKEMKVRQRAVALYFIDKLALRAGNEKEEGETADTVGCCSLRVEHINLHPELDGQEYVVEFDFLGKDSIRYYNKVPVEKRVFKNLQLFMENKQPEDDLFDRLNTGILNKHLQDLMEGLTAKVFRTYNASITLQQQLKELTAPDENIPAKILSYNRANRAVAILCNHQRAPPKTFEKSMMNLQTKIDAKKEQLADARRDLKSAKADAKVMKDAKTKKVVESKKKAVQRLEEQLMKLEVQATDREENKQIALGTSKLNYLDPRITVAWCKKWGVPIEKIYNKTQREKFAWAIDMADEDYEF

HL-60 [2] = test: Cytotoxicity against human HL60 cells after 48 hrs by WST8 assay; type: functional; conditions: HL-60, 48 h
[3] = biological target: T2, DNA topoisomerase 1 (Homo sapiens) (UniProt P11387); test: Inhibition of human DNA topoisomerase 1-mediated relaxation of supercoiled DNA at 63 uM
T2 sequence (whole entry): T1 sequence (P11387 whole entry)

PANC-1 [4] = test: Cytotoxicity against human PANC1 cells after 48 hrs by WST8 assay; type: functional; conditions: PANC-1, 48 h
[5] = biological target: T2, DNA topoisomerase 1 (Homo sapiens); test: Inhibition of human DNA topoisomerase 1-mediated relaxation of supercoiled DNA at 63 to 125 uM
A549 [6] = test: Cytotoxicity against human A549 cells after 48 hrs by WST8 assay; type: functional; conditions: A549, 48 h
[7] = Cytotoxicity against human MRC5 cells after 48 hrs by WST8 assay; type: cell-based
[8] = biological target: T2, DNA topoisomerase 1 (Homo sapiens); test: Inhibition of human DNA topoisomerase 1 assessed as prevention of DNA-enzyme complex formation
DNA topoisomerase 1 [9] = biological target: T1, DNA topoisomerase 1; test: Inhibition of human DNA topoisomerase 1-mediated relaxation of supercoiled DNA by gel electrophoresis
PC-3 [10] = test: Cytotoxicity against human PC3 cells after 48 hrs by WST8 assay; type: functional; conditions: PC-3, 48 h
[11] = biological target: T2, DNA topoisomerase 1 (Homo sapiens); test: Inhibition of human DNA topoisomerase 1 assessed as stabilize DNA-enzyme covalent complex
[12] = biological target: DNA topoisomerase 2-alpha (Homo sapiens, UniProt P11388); test: Inhibition of human DNA topoisomerase 2-mediated relaxation of supercoiled DNA by gel electrophoresis
DNA topoisomerase 2-alpha, sequence (P11388 whole entry): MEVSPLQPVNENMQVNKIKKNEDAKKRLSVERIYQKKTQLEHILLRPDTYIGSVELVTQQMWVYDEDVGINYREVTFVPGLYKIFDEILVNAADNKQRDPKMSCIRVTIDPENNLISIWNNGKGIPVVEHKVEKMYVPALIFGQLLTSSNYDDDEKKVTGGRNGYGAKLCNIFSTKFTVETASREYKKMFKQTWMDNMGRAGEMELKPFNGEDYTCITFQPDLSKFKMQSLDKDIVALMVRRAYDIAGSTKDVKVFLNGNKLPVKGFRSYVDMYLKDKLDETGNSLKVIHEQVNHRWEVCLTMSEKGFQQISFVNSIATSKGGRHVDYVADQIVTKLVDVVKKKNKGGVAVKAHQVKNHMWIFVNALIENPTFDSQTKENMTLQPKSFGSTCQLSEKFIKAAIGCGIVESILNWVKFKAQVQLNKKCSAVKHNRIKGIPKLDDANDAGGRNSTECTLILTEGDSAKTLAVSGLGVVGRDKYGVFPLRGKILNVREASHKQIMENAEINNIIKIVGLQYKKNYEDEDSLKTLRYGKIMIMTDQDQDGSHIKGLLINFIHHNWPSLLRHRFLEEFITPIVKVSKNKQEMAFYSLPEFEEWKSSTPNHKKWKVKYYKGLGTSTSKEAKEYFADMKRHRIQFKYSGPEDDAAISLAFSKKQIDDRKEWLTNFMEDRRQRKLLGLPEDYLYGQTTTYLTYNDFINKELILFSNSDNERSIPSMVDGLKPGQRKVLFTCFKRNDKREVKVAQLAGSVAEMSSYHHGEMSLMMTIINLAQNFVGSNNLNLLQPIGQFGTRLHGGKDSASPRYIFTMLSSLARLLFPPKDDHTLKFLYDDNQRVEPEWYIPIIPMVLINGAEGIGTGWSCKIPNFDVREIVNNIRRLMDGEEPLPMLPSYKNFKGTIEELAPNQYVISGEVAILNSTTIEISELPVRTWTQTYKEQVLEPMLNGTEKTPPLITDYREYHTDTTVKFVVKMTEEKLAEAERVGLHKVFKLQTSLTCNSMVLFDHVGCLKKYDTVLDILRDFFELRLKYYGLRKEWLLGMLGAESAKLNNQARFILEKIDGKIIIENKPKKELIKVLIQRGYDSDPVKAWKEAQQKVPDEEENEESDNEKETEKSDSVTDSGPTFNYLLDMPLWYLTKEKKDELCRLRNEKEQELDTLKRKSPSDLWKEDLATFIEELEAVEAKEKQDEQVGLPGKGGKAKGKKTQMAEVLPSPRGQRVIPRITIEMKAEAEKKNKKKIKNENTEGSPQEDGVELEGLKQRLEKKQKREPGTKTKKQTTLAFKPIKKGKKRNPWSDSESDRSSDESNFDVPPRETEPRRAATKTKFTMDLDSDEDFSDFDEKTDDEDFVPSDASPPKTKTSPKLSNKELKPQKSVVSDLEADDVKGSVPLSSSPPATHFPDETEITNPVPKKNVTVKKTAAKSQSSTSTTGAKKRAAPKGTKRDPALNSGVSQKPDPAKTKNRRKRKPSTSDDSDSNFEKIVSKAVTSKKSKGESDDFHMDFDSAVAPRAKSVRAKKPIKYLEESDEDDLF

[13] = biological target: T2, DNA topoisomerase 1 (Homo sapiens); test: Inhibition of human DNA topoisomerase 1-mediated relaxation of supercoiled DNA at 312 uM
[14] = biological target: T2, DNA topoisomerase 1 (Homo sapiens); test: Inhibition of human DNA topoisomerase 1-mediated relaxation of supercoiled DNA at 450 uM
[15] = biological target: T2, DNA topoisomerase 1 (Homo sapiens); test: Inhibition of human DNA topoisomerase 1 assessed as intercalate into DNA at 312 uM
PANC-1 [16] = test: Cytotoxicity against human PANC1 cells at 25 uM after 48 hrs by WST8 assay; type: functional, cell-based
PC-3 [17] = test: Cytotoxicity against human PC3 cells at 25 uM after 48 hrs by WST8 assay; type: functional, cell-based
HL-60 [18] = test: Cytotoxicity against human HL60 cells at 25 uM after 48 hrs by WST8 assay; type: functional, cell-based
MRC5 = test: Cytotoxicity against human MRC5 cells at 25 uM after 48 hrs by WST8 assay; type: cell-based; conditions: mrc5, 48 h
A549 [19] = test: Cytotoxicity against human A549 cells at 25 uM after 48 hrs by WST8 assay; type: functional, cell-based
[20] = biological target: T2, DNA topoisomerase 1 (Homo sapiens); test: Inhibition of human DNA topoisomerase 1-mediated relaxation of supercoiled DNA at >125 uM

| Structure (SMILES) | IC50 (DNA topoisomerase 1 [1]) [µM] | inhibition [8] | IC50 (DNA topoisomerase 1 [9]) [µM] | inhibition [11] | IC50 [12] [µM] | inhibition [13] | inhibition [14] | Activity [15] | inhibition [20] | GI50 (HL-60 [2]) [µM] | GI50 (PANC-1 [4]) [µM] | GI50 (A549 [6]) [µM] | GI50 at 48 h [7] [µM] | GI50 (PC-3 [10]) [µM] | growth inhibition (GI) (PANC-1 [16]) | growth inhibition (GI) (MRC5) | other results |
| --- | --- | --- | --- | --- | --- | --- | --- | --- | --- | --- | --- | --- | --- | --- | --- | --- | --- |
| C/C=C(/C)C(=O)O[C@H]1[C@H](OC(=O)/C(C)=C\C)[C@]2(CO)[C@H](O)C[C@]3(C)C(=CC[C@@H]4[C@@]5(C)CC[C@H](O[C@@H]6O[C@H](C(=O)O)[C@@H](O)[C@H](O[C@@H]7O[C@@H](CO)[C@H](O)[C@H]7O)[C@H]6O[C@@H]6O[C@H](CO)[C@H](O)[C@H](O)[C@H]6O)C(C)(C)[C@@H]5CC[C@]43C)[C@@H]2CC1(C)C | 23.8 | Active | 27.1 | inactive | > 250 | – | – | – | – | 1.97 | 11.9 | 6.03 | 7.43 | 3.26 | – | – | inhibition [3]: Active; inhibition [5]: Active |
| C/C=C(/C)C(=O)O[C@H]1[C@H](O)[C@]2(CO)[C@H](O)C[C@]3(C)C(=CC[C@@H]4[C@@]5(C)CC[C@H](O[C@@H]6O[C@H](C(=O)O)[C@@H](O)[C@H](O[C@@H]7O[C@@H](CO)[C@H](O)[C@H]7O)[C@H]6O[C@@H]6O[C@H](CO)[C@H](O)[C@H](O)[C@H]6O)C(C)(C)[C@@H]5CC[C@]43C)[C@@H]2CC1(C)C [AESCULIOSIDE IIC] | 23.8 | Active | 111 | inactive | > 250 | inactive | Active | Active | – | 5.75 | – | 8.67 | 11.2 | 16.3 | inactive | – | – |
| C/C=C(/C)C(=O)O[C@H]1[C@H](O)[C@]2(CO)[C@H](O)C[C@]3(C)C(=CC[C@@H]4[C@@]5(C)CC[C@H](O[C@@H]6O[C@H](C(=O)O)[C@@H](O)[C@H](O[C@@H]7O[C@@H](CO)[C@H](O)[C@H]7O)[C@H]6O)[C@](C)(CO)[C@@H]5CC[C@]43C)[C@@H]2CC1(C)C [AESCULIOSIDE IID] | 23.8 | Active | 23.8 | inactive | > 250 | inactive | Active | Active | – | 7.5 | 10.3 | 12.9 | 15.4 | 5.51 | – | – | inhibition [3]: Active |
| C/C=C(\C)C(=O)O[C@H]1[C@H](OC(=O)/C(C)=C/C)[C@]2(CO)[C@H](O)[C@H](O)[C@]3(C)C(=CC[C@@H]4[C@@]5(C)CC[C@H](O[C@@H]6O[C@H](C(=O)O)[C@@H](O)[C@H](O[C@@H]7O[C@@H](CO)[C@H](O)[C@H]7O)[C@H]6O[C@@H]6O[C@H](CO)[C@@H](O)[C@H](O)[C@H]6O)C(C)(C)[C@@H]5CC[C@]43C)[C@@H]2CC1(C)C [AESCULIOSIDE IIIF] | – | – | 53.7 | – | > 250 | – | – | – | Active | 14.2 | 23.5 | > 25 | > 25 | 11.7 | – | – | inhibition [5]: Active |
| C/C=C(/C)C(=O)O[C@H]1[C@H](OC(C)=O)[C@]2(CO)[C@H](O)C[C@]3(C)C(=CC[C@@H]4[C@@]5(C)CC[C@H](O[C@@H]6O[C@H](C(=O)O)[C@@H](O)[C@H](O[C@@H]7O[C@@H](CO)[C@H](O)[C@H]7O)[C@H]6O[C@@H]6O[C@H](CO)[C@H](O)[C@H](O)[C@H]6O)C(C)(C)[C@@H]5CC[C@]43C)[C@@H]2CC1(C)C [AESCULIOSIDE IIK] | – | – | > 250 | – | > 250 | – | – | – | Active | 8.75 | 21.5 | 15.1 | 9.89 | 8.35 | – | – | – |

The next lines start with results.

| IC50 (DNA topoisomerase 1 [1]) [µM] | inhibition [8] | IC50 (DNA topoisomerase 1 [9]) [µM] | inhibition [11] | IC50 [12] [µM] | inhibition [13] | inhibition [14] | Activity [15] | inhibition [20] | Structure (SMILES) | GI50 (HL-60 [2]) [µM] | GI50 (PANC-1 [4]) [µM] | GI50 (A549 [6]) [µM] | GI50 at 48 h [7] [µM] | GI50 (PC-3 [10]) [µM] | growth inhibition (GI) (PANC-1 [16]) | growth inhibition (GI) (MRC5) | other results |
| --- | --- | --- | --- | --- | --- | --- | --- | --- | --- | --- | --- | --- | --- | --- | --- | --- | --- |
| – | – | – | – | – | – | – | – | Active | C/C=C(\C)C(=O)O[C@H]1[C@H](OC(C)=O)[C@]2(CO)[C@H](O)[C@H](O)[C@]3(C)C(=CC[C@@H]4[C@@]5(C)CC[C@H](O[C@@H]6O[C@H](C(=O)O)[C@@H](O)[C@H](O[C@@H]7O[C@@H](CO)[C@H](O)[C@H]7O)[C@H]6O[C@@H]6O[C@H](CO)[C@@H](O)[C@H](O)[C@H]6O)[C@](C)(CO)[C@@H]5CC[C@]43C)[C@@H]2CC1(C)C [AESCULIOSIDE IIE] | – | – | – | – | – | inactive | Not Active | growth inhibition (GI) (PC-3 [17]): inactive; growth inhibition (GI) (HL-60 [18]): inactive; growth inhibition (GI) (A549 [19]): inactive |
| 23.8 | Active | 119 | inactive | > 250 | inactive | Active | Active | – | C/C=C(/C)C(=O)O[C@H]1[C@H](O)[C@]2(COC(C)=O)[C@H](O)C[C@]3(C)C(=CC[C@@H]4[C@@]5(C)CC[C@H](O[C@@H]6O[C@H](C(=O)O)[C@@H](O)[C@H](O[C@@H]7O[C@@H](CO)[C@H](O)[C@H]7O)[C@H]6O[C@@H]6O[C@H](CO)[C@@H](O)[C@H](O)[C@H]6O)[C@](C)(CO)[C@@H]5CC[C@]43C)[C@@H]2CC1(C)C [AESCULIOSIDE IIIA] | 7.2 | 16.7 | 9.48 | 8.65 | 10.1 | – | – | – |
| 23.8 | Active | 160 | inactive | > 250 | inactive | Active | Active | – | C/C=C(/C)C(=O)O[C@H]1[C@H](OC(=O)C(C)C)[C@]2(CO)[C@H](O)[C@H](O)[C@]3(C)C(=CC[C@@H]4[C@@]5(C)CC[C@H](O[C@@H]6O[C@H](C(=O)O)[C@@H](O)[C@H](O[C@@H]7O[C@@H](CO)[C@H](O)[C@H]7O)[C@H]6O[C@@H]6O[C@H](CO)[C@@H](O)[C@H](O)[C@H]6O)[C@](C)(CO)[C@@H]5CC[C@]43C)[C@@H]2CC1(C)C [AESCULIOSIDE IIIB] | 10.9 | – | 11.2 | – | 9.93 | inactive | Not Active | – |
| – | – | 132 | – | > 250 | – | Active | Active | – | C/C=C(\C)C(=O)O[C@H]1[C@H](OC(=O)C(C)CC)[C@]2(CO)[C@H](O)[C@H](O)[C@]3(C)C(=CC[C@@H]4[C@@]5(C)CC[C@H](O[C@@H]6O[C@H](C(=O)O)[C@@H](O)[C@H](O[C@@H]7O[C@@H](CO)[C@H](O)[C@H]7O)[C@H]6O[C@@H]6O[C@H](CO)[C@H](O)[C@H](O)[C@H]6O)C(C)(C)[C@@H]5CC[C@]43C)[C@@H]2CC1(C)C (some centres not stated) [AESCULIOSIDE IIIC] | 13.6 | 18.5 | 17.6 | – | 12.5 | – | Not Active | – |
